Experimental data taken from US20210220489A1, “AMYGDALAR NEURAL ENSEMBLE THAT ENCODES THE UNPL[…] PAIN” (The Board of Trustees of the Leland Stanford Junior …, priority 2020, published 2021).

Legend:
[1] = tested on: control mice expressing eYFP in the BLA nociceptive ensemble; assay: Pain behaviors in control mice expressing eYFP in the BLA nociceptive ensemble (no hM4); assay type: in vivo
Method: For chemogenetic activity manipulation of BLA neuronal ensembles, we intracranially injected 100 nL of either AAV5-hSyn-DIO-hM4-mCherry (U. North Carolina Viral Core; titre: 3.98×1012), AAV5-hSyn-DIO-mCherry (U. North Carolina Viral Core; titre: 4.72×1012), AAVDJ-Ef1a-DIO-eYFP (Stanford Viral Core; titre: 2.65×1011) into both the left and right BLA at coordinates AP: −1.20 mm, ML: ±3.1 mm, DV: −4.60 mm.
To evaluate mechanical reflexive sensitivity, we used a logarithmically increasing set of 8 von Frey filaments (Stoelting), ranging in gram force from 0.07- to 6.0-g (93). These filaments were applied perpendicular to the plantar hindpaw with sufficient force to cause a slight bending of the filament. A positive response was characterized as a rapid withdrawal of the paw away from the stimulus within 4 s. Using the Up-Down statistical method, the 50% withdrawal mechanical threshold scores were calculated for each mouse and then averaged across the experimental groups. The response frequency was calculated as the number of positive responses out of 10 stimulations, delivered at 30-s intervals.
To evaluate affective-motivational responses evoked by mechanical stimulation, we used three von Frey filaments (0.07-g, 0.4-g, and 2.0-g) and a sharp 25G syringe needle (pin prick) (94). […]
To evaluate affective-motivational responses evoked by thermal stimulation (81), we applied either a single, unilateral 50-μL drop of water (5, 30, or 55° C.) or acetone (evaporative cooling) to the left hindpaw, and the duration of attending behavior was collected for up to 60 s after the stimulation. […] The track was subdivided into 25 temperature zones (4.8-cm D per zone), and we assessed the temperature at the center of each zone by a K-probe thermocouple. […] A video camera placed above the track recorded the position of the mouse within the temperature zones, and videos were later analyzed using a video-tracking software (Etho-vision, Noldus) for duration of zone occupancy, zone visits, distance, velocity, and acceleration.

[2] = tested on: ChR2-eYFP+ nociceptor mice; assay: Optical real-time place escape avoidance task; assay type: in vivo; details: CNO 10 mg/kg
Description: To evaluate active avoidance and escape behaviors to optogenetically driven nociception, mice expressing ChR2 in peripheral primary afferent nociceptors freely explored a custom-built two-choice chamber with LED-lit floor panels. A 32×32 LED array (8×8 cm) illuminated half the array in blue light, and the other half in red light (˜0.3 mW/mm^2). A thin glass surface (0.5 cm thick) covered the array floor, upon which we fitted a black plastic chamber (38 cm H) with a center divider wall containing a square passage hole (5-cm D) raised 2.5 cm from the array floor. The entire LED chamber was maintained in a quiet room with low ambient light (˜5 lux). We first placed mice in the red-light chamber and then allowed them to freely explore the chambers for 15 min. A camera placed above the chamber recorded the location of the mouse in the apparatus. We manually scored the videos to determine the time spent by the mouse in each chamber (automated tracking was not possible given the light from the LED floor). Only one mouse was present in the room during all trials.

BLA neurons = assay: Clozapine-N-oxide control experiments with BLA Ca2+ imaging (no hM4 expression); assay type: in vivo, mice; details: CNO 10 mg/kg
Method: To check for possible alterations of neural activity in the presence of CNO alone (i.e., no hM4 expression), we conducted a shortened version of the main protocol (FIGS. 15D-15G). We injected mice with CNO (10 mg/kg), then placed them back in their home cage. After approximately 25 min, we mounted the miniature microscope on the mouse's head and placed them within the test chamber. They habituated for 10 min followed by adlibitum access to 10% sucrose solution delivered in the same manner as previously described. Mice then received a battery of stimuli: light touch (0.07-g von Frey filament), noxious pin (25G needle), or aloud noise (˜85 dB, same as previously described). We collected all subsequent data, processed Ca2+ imaging movies, and performed analysis similar to the main protocol used in FIG. 7.

[3] = CNO 10 mg/kg, AAVDJ-Ef1α-DIO-eYFP control mice

`C[N+]1([O-])CCN(C2=Nc3cc(Cl)ccc3Nc3ccccc32)CC1` [CNO, clozapine-N-oxide] was tested, and the affective-motivational behaviors [1, 3] was “Lack of effect”, the reflexive behaviors [1, 3] was “Lack of effect” and the pain behaviors ([1]; CNO alone, control mice) was “had no effect”. The “aversion to the noxious blue light chamber” value [2] was “eliminated the aversion” and the “mean neural response to various stimuli” value (BLA neurons) was “did not alter”.
